The source made the active and inactive calls. No rule for the calls is given here.
System: Jurkat NF-kB reporter, luminescence
Assay: NF-kB reporter inhibition in Jurkat cells, dose response, selectivity assay for B-cell receptor NF-kB inhibitor project, cell-based, luminescence (AID 489006)

Structure (SMILES)	IC50
Cc1nc2cc(-c3ccccc3)nn2c(C)c1CCC(=O)NCc1ccco1	> 80 µM (inactive)
COc1ccc(-c2nn(C)c(=O)c3ccccc23)cc1NS(C)(=O)=O	> 80 µM (inactive)
Nc1ccccc1SCC(=O)Nc1nc(-c2ccccc2)cs1	> 80 µM (inactive)
Cc1ccc(S(=O)(=O)N2CCCCC2CCNC(=O)C(=O)NCc2ccncc2)cc1 (configuration not stated)	> 80 µM (inactive)
Cc1ccc(C(=O)CSc2nnc(COc3cccc(C)c3)o2)cc1	> 80 µM (inactive)
O=C(CCl)Nc1ccccc1Sc1ccccc1	14.1 µM
CC1(C)CC2CC(C)(CN2S(=O)(=O)c2ccc(C(=O)Nc3ccc(S(=O)(=O)N4CCOCC4)cc3)cc2)C1 (configuration not stated)	> 80 µM (inactive)
COc1ccc(-c2noc(CCCC(=O)Nc3ccc(C(N)=O)cc3)n2)cc1	11.9 µM
CCOc1ccc(NC(=O)CCCc2cc(-c3ccc(OCC)cc3)on2)cc1	> 80 µM (inactive)
COc1ccc(NC(=O)CN(C)C(=O)C2(c3ccccc3)CCCC2)cc1	> 80 µM (inactive)
Cc1ccc(S(=O)(=O)Nc2ccc3c(c2)n(C)c(=O)n3C)cc1	73 µM (inactive)
CCC(=O)N(C1=C(NC)C(=O)c2ccccc2C1=O)C(C)C	45.8 µM (inactive)
CC1CCC/C=C/C2CC(O)CC2C(O)/C=C/C(=O)O1 (configuration not stated)	> 80 µM (inactive)
Cc1nc(Nc2c(Cl)cccc2Cl)sc1C(=O)Nc1ccccc1	> 80 µM (inactive)
COc1cc(OC)cc(-c2cc3nc(C)c(CCC(=O)Nc4nc(C)cs4)c(C)n3n2)c1	5.28 µM
COc1ccc(/C=C2\SC(=O)N(CCCC(=O)Nc3ccc(C(=O)O)cc3)C2=O)cc1OC	29.4 µM (inactive)
CC(C)(O)/C=C/C(=O)[C@](C)(O)C1[C@H](O)C[C@@]2(C)C3CC=C4C(C[C@H](O)[C@@H](O)C4(C)C)[C@]3(C)C(=O)C[C@]12C (some centres not stated)	31.3 µM (inactive)
COC(=O)CSc1nnc(-c2sc3ccccc3c2Cl)o1	3.43 µM
Cc1ccc(C(=O)CSc2nnc(COc3ccccc3)o2)cc1	> 80 µM (inactive)
O=C(Oc1cccc(/C=N/Nc2nc(Nc3ccccc3)nc(N3CCOCC3)n2)c1)c1ccco1	> 80 µM (inactive)
O=C(Nc1cccc(Oc2ccc3c(c2)C(=O)NC3=O)c1)c1cccs1	> 80 µM (inactive)
Cn1c(=O)n(C)c2cc(NS(=O)(=O)c3ccccc3)ccc21	51.8 µM (inactive)
CC(C)(C)c1ccc(-c2noc(CCC(=O)N3CCOCC3)n2)cc1	> 80 µM (inactive)

Structure (SMILES)	IC50
COc1cc(OC)c(/C=N/NC(N)=S)cc1Br	> 80 µM (inactive)
O=C(NNC(=O)C12CC3CC(CC(C3)C1)C2)c1cccc(O)c1	> 80 µM (inactive)
O=C(CN1C(=O)c2ccccc2S1(=O)=O)c1ccc(OC(F)F)cc1	3.15 µM
COc1cc(C2C(C#N)=C(N)Oc3cc(N)ccc32)cc(OC)c1OC (configuration not stated)	> 80 µM (inactive)
Cc1ccc(-c2c[n+]3c(n2-c2ccccc2)SCC3)cc1	> 80 µM (inactive)
Cc1c(CCO)c(=O)oc2n[nH]c(-c3ccccc3)c12	> 80 µM (inactive)
Cc1ccc(/C=C2\SC(=S)N(CCCC(=O)NNC(=O)c3ccccc3O)C2=O)cc1	0.89 µM
Cc1ccc(C(=O)C[n+]2cc(-c3ccc(C)cc3)n3c2CCCCC3)cc1	8.37 µM
C=CCOC(=O)COc1cc(C)cc2oc(=O)c3c(c12)CCC3	> 80 µM (inactive)
Cc1ccc(CSc2nnc(SCC(=O)N/N=C/C=C/c3ccccc3[N+](=O)[O-])s2)cc1	67 µM (inactive)
Cc1ccc(Sc2cc(NCCCO)c([N+](=O)[O-])c3nonc23)cc1	> 80 µM (inactive)
COc1ccc(C(=O)n2nc(-c3ccc(Cl)cc3)nc2N)cc1OC	2.9 µM
Cc1nn(C(C)(C)C)c(OC(=O)c2ccc(Br)o2)c1Sc1ccccc1	> 80 µM (inactive)
COc1ccc(-c2ccc(OC)c([C@H]3[C@H]4C=CC[C@@H](C)[C@@H]4C(=O)N3Cc3ccccc3)c2)cc1	35.7 µM (inactive)
O=C(CCCN1C(=O)S/C(=C/C=C/c2ccccc2)C1=O)Nc1ccc(C(=O)O)cc1	> 80 µM (inactive)
CC1CCc2c(sc3nc(C(C)(C)C)nc(N4CCN(C(=O)CCl)CC4)c23)C1 (configuration not stated)	1.27 µM
Cn1c(=O)cc(OCC(=O)N2CCC3(CC2)OCCO3)c2ccccc21	> 80 µM (inactive)
Cc1ccc(Nc2nc(N3CCOCC3)nc(N3CCOCC3)n2)cc1C	> 80 µM (inactive)
O=C(CCl)N1CCN(S(=O)(=O)c2ccc3c(c2)CCC3)CC1	2.16 µM
COC(=O)c1c(-c2ccc(N(C)C)cc2)sc2ccc(OC)cc12	> 80 µM (inactive)
COCCCNC(=O)COc1ccc(-c2nccc(-c3ccccn3)n2)cc1	8.68 µM
CC(C)(C)c1ccc(-c2noc(CCC(=O)Nc3cccnc3)n2)cc1	< 0.16 µM
COc1ccc(OC)c(NC(=O)c2[nH]c(C)c(C(C)=O)c2C)c1	> 80 µM (inactive)

Structure (SMILES)	IC50
O=C(CCCc1nc(-c2ccccc2Cl)no1)NC1CCCC1	1.02 µM
O=C(Nc1nc(-c2ccccc2)cs1)c1ccccc1NS(=O)(=O)c1ccc(F)cc1	19 µM
Cc1cc2ccccn2c1C(=O)c1ccc(NN)c([N+](=O)[O-])c1	> 80 µM (inactive)
CC1=CC(C)(C)Nc2ccc(OC(=O)CN3C(=O)c4ccccc4C3=O)cc21	1.28 µM
COC(=O)C(C)Oc1cc(C)cc2oc(=O)c3c(c12)CCC3 (configuration not stated)	49.9 µM (inactive)
COc1ccc(NC(=O)c2cc(-c3ccccn3)nc3ccccc23)cc1S(=O)(=O)N(C)C	26.6 µM (inactive)
COc1ccc(/C=C2\SC(=S)N(CCC(=O)Nc3ccc(C(=O)O)cc3)C2=O)cc1	> 80 µM (inactive)
CCNc1nc(C)c2cc(Br)c(=O)n(CC)c2n1	7.89 µM
Cc1cc(C)cc(NC(=O)c2nnn(Cc3cc(C)ccc3C)c2N)c1	> 80 µM (inactive)
COc1ccc(/C=C2/SC(=S)N(CCCC(=O)Nc3ccc(O)cc3)C2=O)cc1	> 80 µM (inactive)
COc1ccc(-n2nnnc2S(=O)(=O)CC(=O)N2CCCCC2)cc1	2.25 µM
Cc1ccc(-n2c(-c3ccccc3)c[n+]3c2CCc2ccccc2-3)c(C)c1	12.5 µM
CCOc1ccc(/C=C2\SC(=S)N(CCC(=O)Nc3cccc(C(=O)O)c3)C2=O)cc1	> 80 µM (inactive)
CN1C(=O)CC(c2ccco2)Sc2ccccc21 (configuration not stated)	> 80 µM (inactive)
Cc1cc(N(C)C)ccc1N=Nc1ccc(N)cc1	> 80 µM (inactive)
CC(C)c1ccc(/C=C2\SC(=S)N(CCC(=O)NCCCn3ccnc3)C2=O)cc1	2.64 µM
COc1ccc(/C=C\C(=O)O[C@@H]2C(O)C(O[C@@H]3OC(C)[C@H](O[C@@H]4OCC(O[C@H]5O[C@H](CO)[C@@H](O)C(O)C5O)C(O)C4O)C(O)C3O)[C@H](OC(=O)[C@]34CCC(C)(C)C[C@@H]3C3=CCC5[C@@]6(C)CC(O)C(O[C@@H]7OC(CO)C(O)[C@H](O)[C@H]7O)[C@@](C)(C(=O)O)C6CC[C@@]5(C)[C@]3(CO)CC4)O[C@H]2C)cc1 (some centres not stated)	2.88 µM
CCOc1ccc(-c2c[n+]3c(n2-c2ccccc2)CCCCC3)cc1	> 80 µM (inactive)
CC1=CC(C)(C)Nc2ccc(OC(=O)CN3C(=O)CCC3=O)cc21	1.54 µM
CCN1C(=O)c2cccc3c(S(=O)(=O)Nc4ccccn4)ccc1c23	40.5 µM (inactive)
CCc1ccc(/C=C2\SC(=S)N(CCC(=O)Nc3cc(C)on3)C2=O)cc1	4.06 µM

— PubChem BioAssay AID489006 (Sanford-Burnham Center for Chemical Genomics, 2010)
